Results on 17 compounds are retold here after patent US11254668B2, “Pyrazolo[1,5-A]pyrazin-4-yl and related derivatives” (Pfizer Inc., priority 2017, dated 2022).

Usually pIC50 stands for the negative decadic logarithm of the IC50, by convention in mol/L.

pIC50: −log10 of the molar value.

Common to all, as to assay type: biochemical
Holding throughout (conditions): JAK Caliper enzyme assay

The target of one assay is JAK3 (Homo sapiens (Human), UniProt P52333). Description: JAK Caliper Enzyme Assay at 1 mM ATP, JAK3. In outline:
(§1)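 Recombinant human kinase domains phosphorylate a fluorescent synthetic peptide at 1 mM ATP, room temperature, with enzyme and time tuned for 20-30% conversion; EDTA-stopped. Product/substrate separated by microfluidic mobility shift; percent effect versus DMSO and positive controls fitted to IC50 (nM).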

In the next assay the target is JAK2 (Homo sapiens (Human), UniProt O60674). Description: JAK Caliper Enzyme Assay at 1 mM ATP, JAK2. In outline: (§2)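 Read-out is Caliper LabChip mobility-shift separation of phosphorylated from unphosphorylated fluorescent peptide after EDTA termination. Each JAK kinase domain (human, recombinant) runs at 1 mM ATP at room temperature, adjusted for 20–30% turnover. Inhibition is normalized to DMSO and positive-control wells and plotted against concentration.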

In the next assay the target is TYK2 (Homo sapiens (Human), UniProt P29597). In words: JAK Caliper Enzyme Assay at 1 mM ATP, TYK2. An outline of the steps:
as §2

Another assay has as its target JAK1 (Homo sapiens (Human), UniProt P23458). Description: JAK Caliper Enzyme Assay at 1 mM ATP, JAK1. An outline of the steps: as §1

Chain of JAK1 (P23458 875-1153): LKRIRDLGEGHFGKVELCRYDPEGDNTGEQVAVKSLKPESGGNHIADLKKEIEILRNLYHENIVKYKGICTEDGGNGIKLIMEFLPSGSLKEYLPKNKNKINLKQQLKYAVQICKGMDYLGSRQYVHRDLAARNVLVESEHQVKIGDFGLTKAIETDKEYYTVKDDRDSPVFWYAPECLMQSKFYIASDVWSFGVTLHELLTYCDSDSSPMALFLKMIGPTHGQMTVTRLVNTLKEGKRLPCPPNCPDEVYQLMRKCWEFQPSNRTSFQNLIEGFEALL
Chain of TYK2 (P29597 897-1176): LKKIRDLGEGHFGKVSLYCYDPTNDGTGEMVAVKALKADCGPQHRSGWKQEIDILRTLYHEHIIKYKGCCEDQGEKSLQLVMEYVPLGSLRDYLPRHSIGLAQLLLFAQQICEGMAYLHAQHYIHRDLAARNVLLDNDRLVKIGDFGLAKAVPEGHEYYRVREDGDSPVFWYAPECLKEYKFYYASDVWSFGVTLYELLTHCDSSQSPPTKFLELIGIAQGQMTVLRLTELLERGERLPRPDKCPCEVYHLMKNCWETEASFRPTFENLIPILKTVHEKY
Chain of JAK2 (O60674 849-1124): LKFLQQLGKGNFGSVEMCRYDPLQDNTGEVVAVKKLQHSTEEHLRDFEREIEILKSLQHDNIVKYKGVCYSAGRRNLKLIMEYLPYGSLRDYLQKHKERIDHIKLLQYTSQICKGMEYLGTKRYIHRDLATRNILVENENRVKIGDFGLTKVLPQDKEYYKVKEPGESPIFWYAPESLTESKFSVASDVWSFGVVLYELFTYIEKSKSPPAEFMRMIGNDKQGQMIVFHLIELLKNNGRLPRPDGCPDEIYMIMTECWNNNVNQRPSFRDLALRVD
Chain of JAK3 (P52333 822-1111): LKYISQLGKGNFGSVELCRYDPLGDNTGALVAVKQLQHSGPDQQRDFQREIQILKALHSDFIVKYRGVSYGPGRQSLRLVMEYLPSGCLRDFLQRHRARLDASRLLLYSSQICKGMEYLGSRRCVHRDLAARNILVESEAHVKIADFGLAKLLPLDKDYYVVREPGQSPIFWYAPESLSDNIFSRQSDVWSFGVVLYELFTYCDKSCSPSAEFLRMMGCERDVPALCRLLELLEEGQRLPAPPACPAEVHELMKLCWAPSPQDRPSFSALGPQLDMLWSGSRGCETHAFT

In the case of `N#CCC1(n2ncc(-c3cc(-c4ccc(C(=O)O)cc4)cc4ncccc34)n2)CC(C#N)C1` (stereo not drawn) [Example 436, 4-(5-{2-[trans-3-cyano-1-(cyanomethyl)cyclobutyl]-2H-1,2,3-triazol-4-yl}quinolin-7-yl)benzoic acid], the pIC50 on JAK3 is less than 5.00; at JAK2, 5.95; on TYK2, 7.12; at JAK1, 5.83.

Take `CS(=O)(=O)N1CC(CC#N)(n2ncc(-c3cc(-c4ccccc4O)cc4ncccc34)n2)C1` [Example 437, [3-{4-[7-(2-hydroxyphenyl)quinolin-5-yl]-2H-1,2,3-triazol-2-yl}-1-(methylsulfonyl)azetidin-3-yl]acetonitrile]: the pIC50 is less than 5.00 at JAK3, less than 5.00 at JAK2, 5.92 at TYK2 and less than 5.00 on JAK1.

Regarding `CS(=O)(=O)N1CC(CC#N)(n2ncc(-c3cc(-c4cccc(O)c4)cc4ncccc34)n2)C1` [Example 438, [3-{4-[7-(3-hydroxyphenyl)quinolin-5-yl]-2H-1,2,3-triazol-2-yl}-1-(methylsulfonyl)azetidin-3-yl]acetonitrile], the pIC50 on JAK3 is less than 5.00; on JAK2, 5.71; on TYK2 it was 6.97; on JAK1, 5.25.

Take `CS(=O)(=O)N1CC(CC#N)(n2ncc(-c3cc(-c4ccc(O)cc4)cc4ncccc34)n2)C1` [Example 439, [3-{4-[7-(4-hydroxyphenyl)quinolin-5-yl]-2H-1,2,3-triazol-2-yl}-1-(methylsulfonyl)azetidin-3-yl]acetonitrile]: the pIC50 was less than 5.00 on JAK3, 6.22 at JAK2, 7.52 on TYK2 and 5.92 on JAK1.

Take `N#CC[C@]1(n2ncc(-c3cc(-c4ccc(OCCN)cc4)cc4ncccc34)n2)C[C@H](C#N)C1` [Example 440, trans-3-(4-{7-[4-(2-aminoethoxy)phenyl]quinolin-5-yl}-2H-1,2,3-triazol-2-yl)-3-(cyanomethyl)cyclobutanecarbonitrile]: the pIC50 at JAK3 is less than 5.00; on JAK2 it was 6.09; at TYK2 it was 6.86; on JAK1, 5.19.

On to `CS(=O)(=O)N1CC(CC#N)(n2ncc(-c3cc(-c4ccc(F)cc4O)cc4ncccc34)n2)C1` [Example 441, [3-{4-[7-(4-fluoro-2-hydroxyphenyl)quinolin-5-yl]-2H-1,2,3-triazol-2-yl}-1-(methylsulfonyl)azetidin-3-yl]acetonitrile], for which the negative logarithm of the IC50 (pIC50) at JAK3 was less than 5.00; at JAK2, less than 5.00; on TYK2 it was 5.96; at JAK1, less than 5.00.

Regarding `CS(=O)(=O)N1CC(CC#N)(n2ncc(-c3cc(-c4cc(F)ccc4O)cc4ncccc34)n2)C1` [Example 442], the pIC50 on JAK3 was less than 5.00; on JAK2, less than 5.00; on TYK2 it was 5.12; at JAK1, less than 5.00.

In the case of `CS(=O)(=O)N1CC(CC#N)(n2ncc(-c3cc(-c4cc(O)cc(F)c4)cc4ncccc34)n2)C1` [Example 443], the pIC50 at JAK3 was less than 5.00; on JAK2 it was 5.19; on TYK2, 6.20; on JAK1, less than 5.00.

As for `CS(=O)(=O)N1CC(CC#N)(n2ncc(-c3cc(-c4ccc(O)c(F)c4)cc4ncccc34)n2)C1` [Example 444], the pIC50 on JAK3 is less than 5.00; on JAK2 it was 5.93; on TYK2, 7.11; on JAK1, 5.91.

Consider `CS(=O)(=O)N1CC(CC#N)(n2ncc(-c3cc(-c4cccc(CO)c4F)cc4ncccc34)n2)C1` [Example 445, [3-(4-{7-[2-fluoro-3-(hydroxymethyl)phenyl]quinolin-5-yl}-2H-1,2,3-triazol-2-yl)-1-(methylsulfonyl)azetidin-3-yl]acetonitrile], for which the pIC50 on JAK3 is less than 5.00; on JAK2, 5.25; on TYK2, 6.48; on JAK1 it was less than 5.00.

Consider `CS(=O)(=O)N1CC(CC#N)(n2ncc(-c3cc(-c4ccc(F)c(CO)c4)cc4ncccc34)n2)C1` [Example 446, [3-(4-{7-[4-fluoro-3-(hydroxymethyl)phenyl]quinolin-5-yl}-2H-1,2,3-triazol-2-yl)-1-(methylsulfonyl)azetidin-3-yl]acetonitrile], for which the pIC50 on JAK3 was less than 5.00; at JAK2, 6.02; at TYK2, 7.00; at JAK1, 5.33.

On to `N#CC[C@]1(n2ncc(-c3cc(-c4ccc(-c5nnn[nH]5)cc4)cc4ncccc34)n2)C[C@@H](C#N)C1` [Example 447, cis-3-(cyanomethyl)-3-(4-{7-[4-(1H-tetrazol-5-yl)phenyl]quinolin-5-yl}-2H-1,2,3-triazol-2-yl)cyclobutanecarbonitrile], for which the pIC50 at JAK3 was 5.03; at JAK2, 6.80; on TYK2 it was 7.77; at JAK1, 6.74.

For the compound `CS(=O)(=O)N1CC(CC#N)(n2ncc(-c3cc(-c4ccc5c(c4)C(=O)NC5)cc4ncccc34)n2)C1` [Example 448, [1-(methylsulfonyl)-3-{4-[7-(3-oxo-2,3-dihydro-1H-isoindol-5-yl)quinolin-5-yl]-2H-1,2,3-triazol-2-yl}azetidin-3-yl]acetonitrile], the pIC50 at JAK3 is less than 5.00; on JAK2, 5.57; on TYK2 it was 6.59; at JAK1, less than 5.00.

Turning to `N#CC[C@]1(n2ncc(-c3cc(-c4cccc5c4NC(=O)C5)cc4ncccc34)n2)C[C@@H](C#N)C1` [Example 449, cis-3-(cyanomethyl)-3-{4-[7-(2-oxo-2,3-dihydro-1H-indol-7-yl)quinolin-5-yl]-2H-1,2,3-triazol-2-yl}cyclobutanecarbonitrile], the pIC50 on JAK3 was less than 5.00; on JAK2, 5.19; at TYK2, 6.43; on JAK1, less than 5.00.

As to `N#CCC1(n2ncc(-c3cc(-c4cccc5c4NC(=O)C5)cc4ncccc34)n2)CC(C#N)C1` (stereo not drawn) [Example 450, trans-3-(cyanomethyl)-3-{4-[7-(2-oxo-2,3-dihydro-1H-indol-7-yl)quinolin-5-yl]-2H-1,2,3-triazol-2-yl}cyclobutanecarbonitrile], the pIC50 on JAK3 was less than 5.00; at JAK2, less than 5.00; on TYK2, 5.85; on JAK1 it was less than 5.00.

In the case of `CS(=O)(=O)N1CC(CC#N)(n2cnc(-c3cc(-c4ccc(=O)[nH]c4)cc4ncccc34)n2)C1` [Example 451, [1-(methylsulfonyl)-3-{3-[7-(6-oxo-1,6-dihydropyridin-3-yl)quinolin-5-yl]-1H-1,2,4-triazol-1-yl}azetidin-3-yl]acetonitrile], the pIC50 was less than 5.00 on JAK3, 5.15 at JAK2, 6.55 on TYK2 and less than 5.00 on JAK1.

Consider `CS(=O)(=O)N1CC(CC#N)(n2cnc(-c3cc(-c4ccn[nH]4)cc4ncccc34)n2)C1` [Example 452, [1-(methylsulfonyl)-3-{3-[7-(1H-pyrazol-5-yl)quinolin-5-yl]-1H-1,2,4-triazol-1-yl}azetidin-3-yl]acetonitrile], for which the pIC50 on JAK3 was less than 5.00; at JAK2, 5.17; at TYK2, 6.49; on JAK1 it was 5.14.
